Measurements as given in the supplement of paper PMC10307832.

Tests used:
Assay in all cases: relative viability (nuclei count vs DMSO), 5 days (fraction); higher = more cells survive
[1] = compound: CCN1C(=O)C2=CC(=C(N=C2N(C1=O)C3CC3)N)C(=O)N + COc1cccc2cc(-c3nc([C@H]4CC[C@H](C(=O)O)CC4)n4ncnc(N)c34)[nH]c12 [OSI-027] (partner 0.5 µM)
Method in brief: (§1)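 A single step with final 0.05% Triton X-100, 1% formaldehyde and 1 ug/ml Hoechst fixed the cells and stained nuclei 5 days after treatment. Lung cancer cell lines in 1536-well plates had been treated by pin tool the day after seeding with one drug alone or a fixed anchor-drug dose plus five library-drug doses (not always all listed) in √10 steps, and nuclei were counted on 4× images. Relative viability is the ratio of nuclei in treated wells to nuclei in vehicle wells, taken as the median of duplicate plates.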

[2] = compound: CCN1C(=O)C2=CC(=C(N=C2N(C1=O)C3CC3)N)C(=O)N + CS(=O)(=O)CCNCc1ccc(-c2ccc3ncnc(Nc4ccc(OCc5cccc(F)c5)c(Cl)c4)c3c2)o1 [Lapatinib] (partner 2 µM)
Method in brief: as §1

[3] = compound: CCN1C(=O)C2=CC(=C(N=C2N(C1=O)C3CC3)N)C(=O)N + CC1(C)CCC(c2ccc(Cl)cc2)=C(CN2CCN(c3ccc(C(=O)NS(=O)(=O)c4ccc(N[C@H](CCN5CCOCC5)CSc5ccccc5)c(S(=O)(=O)C(F)(F)F)c4)cc3)CC2)C1 [Navitoclax] (partner 0.5 µM)
Method in brief: as §1

[4] = compound: CCN1C(=O)C2=CC(=C(N=C2N(C1=O)C3CC3)N)C(=O)N + CS(=O)(=O)N1CCN(Cc2cc3nc(-c4cccc5[nH]ncc45)nc(N4CCOCC4)c3s2)CC1 [Pictilisib] (partner 1 µM)
Method in brief: as §1

[5] = compound: CCN1C(=O)C2=CC(=C(N=C2N(C1=O)C3CC3)N)C(=O)N + CC(C)C[C@H](NC(=O)[C@H](Cc1ccccc1)NC(=O)c1cnccn1)B(O)O [Bortezomib] (partner 0.002 µM)
Method in brief: as §1

Cell Line	relative viability ([1]; first compound 0.8 µM)	relative viability ([1]; first compound 2.53 µM)	relative viability ([1]; first compound 8 µM)	relative viability ([2]; first compound 0.253 µM)	relative viability ([2]; first compound 0.8 µM)	relative viability ([2]; first compound 8 µM)	relative viability ([3]; first compound 0.253 µM)	relative viability ([3]; first compound 0.8 µM)	relative viability ([3]; first compound 8 µM)	relative viability ([4]; first compound 0.253 µM)	relative viability ([4]; first compound 0.8 µM)	relative viability ([4]; first compound 8 µM)	relative viability ([1]; first compound 0.253 µM)	relative viability ([2]; first compound 2.53 µM)	relative viability ([3]; first compound 2.53 µM)	relative viability ([4]; first compound 2.53 µM)	relative viability ([5]; first compound 0.253 µM)	relative viability ([5]; first compound 0.8 µM)	relative viability ([5]; first compound 2.53 µM)	relative viability ([5]; first compound 8 µM)
NCI-H1793	0.294	0.212	0.239	0.635	0.819	0.636	0.701	0.385	0.404	0.267	0.308	0.303								
NCI-H1395	0.587	0.697	0.593	1.04	0.915	0.893	1.1	1.34	1.73	0.611	0.583	0.63	0.62	1.1	1.13	0.636				
SK-MES-1	0.564	0.588	0.583	0.478	0.485	0.492	1.03	1.28	1.27	0.358	0.403	0.37	0.626	0.451	1.22	0.323				
NCI-H1563	0.805	0.759	0.795	0.808	0.91	0.885				0.648	0.618	0.616	0.743	0.95		0.728	0.919	0.871	0.83	0.681
IA-LM				0.877	0.902	0.747	0.815	0.583	0.791	0.358	0.356	0.339		0.88	0.768	0.343	0.826	0.702	0.807	0.817
